Data on ten molecules can be found in PubChem BioAssay AID1259407 (Chemical Carcinogenesis Research Information System (CCRIS), 2018).

Calls of active or inactive are those of the source. No rule for the calls is given here.

This data set has as its system CCRIS mutagenicity, Ames/micronucleus/aberration tests. The experiment in a line: CCRIS mutagenicity studies.
[1] abbreviates: Test System: AMES SALMONELLA TYPHIMURIUM, Strain/Indicator: TA100, Metabolic Activation: NONE, Method: STANDARD PLATE.
Setting [2] is: Test System: AMES SALMONELLA TYPHIMURIUM, Strain/Indicator: TA1535, Metabolic Activation: NONE, Method: STANDARD PLATE.
Setting [3] is: Test System: AMES SALMONELLA TYPHIMURIUM, Strain/Indicator: TA100, Metabolic Activation: RAT, LIVER, S-9, AROCLOR 1254, Method: STANDARD PLATE.
Where [4] appears, read: Test System: AMES SALMONELLA TYPHIMURIUM, Strain/Indicator: TA98, Metabolic Activation: NONE, Method: STANDARD PLATE.
Where [5] appears, read: Test System: AMES SALMONELLA TYPHIMURIUM, Strain/Indicator: TA98, Metabolic Activation: RAT, LIVER, S-9, AROCLOR 1254, Method: STANDARD PLATE.

As to `N/C(=N\O)c1ccccc1`, the mutagenic call (Test System: AMES SALMONELLA TYPHIMURIUM, Strain/Indicator: TA98, Metabolic Activation: CO631 CELLS, Method: PREINCUBATION) was “inactive; negative”; the mutagenic call (Test System: AMES SALMONELLA TYPHIMURIUM, Strain/Indicator: TA98, Metabolic Activation: NONE, Method: PREINCUBATION) was “inactive; negative”; the mutagenic call (Test System: AMES SALMONELLA TYPHIMURIUM, Strain/Indicator: TA98, Metabolic Activation: RABBIT, LIVER, S-9, Method: PREINCUBATION) is “active; positive”; the mutagenic call (Test System: AMES SALMONELLA TYPHIMURIUM, Strain/Indicator: TA98, Metabolic Activation: RAT HEPATOCYTES, Method: PREINCUBATION) was “inactive; negative”; the mutagenic call (Test System: AMES SALMONELLA TYPHIMURIUM, Strain/Indicator: TA98, Metabolic Activation: RAT, LIVER, S-9, AROCLOR 1254, ATP, Method: PREINCUBATION) is “inactive; negative”; the mutagenic call (Test System: AMES SALMONELLA TYPHIMURIUM, Strain/Indicator: TA98, Metabolic Activation: RAT, LIVER, S-9, AROCLOR 1254, Method: PREINCUBATION) was “inactive; negative”. In addition, the mutagenic call is “inactive; negative” (Test System: AMES SALMONELLA TYPHIMURIUM, Strain/Indicator: TA100, Metabolic Activation: RABBIT, LIVER, S-9, Method: PREINCUBATION); “inactive; negative” (Test System: AMES SALMONELLA TYPHIMURIUM, Strain/Indicator: TA100, Metabolic Activation: RAT HEPATOCYTES, Method: PREINCUBATION); “inactive; negative” (Test System: AMES SALMONELLA TYPHIMURIUM, Strain/Indicator: TA100, Metabolic Activation: RAT, LIVER, S-9, AROCLOR 1254, ATP, Method: PREINCUBATION); “inactive; negative” (Test System: AMES SALMONELLA TYPHIMURIUM, Strain/Indicator: TA100, Metabolic Activation: RAT, LIVER, S-9, AROCLOR 1254, Method: PREINCUBATION).
Consider `CC(=O)OCc1cc(C(C)=O)ccc1OC(C)=O`, for which the mutagenic call was “active; positive” (Test System: AMES SALMONELLA TYPHIMURIUM, Strain/Indicator: TA100(PKM101), Metabolic Activation: NONE, Method: STANDARD PLATE); “active; positive” under setting [1]; “inactive; negative” under setting [2]; “inactive; negative” (Test System: AMES SALMONELLA TYPHIMURIUM, Strain/Indicator: TA1538, Metabolic Activation: NONE, Method: STANDARD PLATE); “active; positive” (Test System: E. COLI, Strain/Indicator: TK701(PKM101), Metabolic Activation: NONE, Method: STANDARD PLATE); “active; positive” (Test System: E. COLI, Strain/Indicator: TK701, Metabolic Activation: NONE, Method: STANDARD PLATE). Besides, the mutagenic call was “active; positive” (Test System: E. COLI, Strain/Indicator: TK702(PKM101), Metabolic Activation: NONE, Method: STANDARD PLATE) and “inactive; negative” (Test System: E. COLI, Strain/Indicator: TK702, Metabolic Activation: NONE, Method: STANDARD PLATE).
For the molecule `Cc1ccc(N(N)c2ccc(C)cc2)cc1`, the mutagenic call under setting [1] was “inactive; negative”; the mutagenic call under setting [3] is “active; positive”; the mutagenic call (Test System: AMES SALMONELLA TYPHIMURIUM, Strain/Indicator: TA102, Metabolic Activation: NONE, Method: STANDARD PLATE) is “active; positive”; the mutagenic call (Test System: AMES SALMONELLA TYPHIMURIUM, Strain/Indicator: TA102, Metabolic Activation: RAT, LIVER, S-9, AROCLOR 1254, Method: STANDARD PLATE) is “active; positive”.
For the molecule `c1ccc(-c2ccccc2OCC2CO2)cc1` (configuration not stated), the mutagenic call runs as follows: under setting [1], “active; positive”; under setting [2], “active; positive”.
For the molecule `CC1(C)C[C@@H]2[C@@]3(C(=O)O)C[C@@]3(C=O)C(C=O)=C[C@]2(O)C1`, the mutagenic call (Test System: CHINESE HAMSTER V-79, Strain/Indicator: V-79/6-THIOGUANINE (HGPRT), Metabolic Activation: NONE) is “inactive; negative”.
Regarding `O=[N+]([O-])c1ccc(OC[C@H]2CO2)cc1`, the mutagenic call under setting [1] is “active; positive”.
Turning to `O=C(O)CC(O)C(=O)O` (configuration not stated), the mutagenic call is “inactive; negative” (Test System: AMES SALMONELLA TYPHIMURIUM, Strain/Indicator: TA97, Metabolic Activation: NONE, Method: PREINCUBATION); “inactive; negative” (Test System: AMES SALMONELLA TYPHIMURIUM, Strain/Indicator: TA97, Metabolic Activation: NONE, Method: STANDARD PLATE); “inactive; negative” (Test System: AMES SALMONELLA TYPHIMURIUM, Strain/Indicator: TA97, Metabolic Activation: RAT, LIVER, S-9, AROCLOR 1254, Method: PREINCUBATION); “inactive; negative” (Test System: AMES SALMONELLA TYPHIMURIUM, Strain/Indicator: TA97, Metabolic Activation: RAT, LIVER, S-9, PHENOBARBITAL, Method: STANDARD PLATE); “inactive; negative” under setting [4]; “inactive; negative” (Test System: AMES SALMONELLA TYPHIMURIUM, Strain/Indicator: TA98, Metabolic Activation: RAT, LIVER, S-9, PHENOBARBITAL, Method: STANDARD PLATE). Also, the mutagenic call was “inactive; negative” under setting [1]; “inactive; negative” (Test System: AMES SALMONELLA TYPHIMURIUM, Strain/Indicator: TA100, Metabolic Activation: RAT, LIVER, S-9, PHENOBARBITAL, Method: STANDARD PLATE); “inactive; negative” (Test System: AMES SALMONELLA TYPHIMURIUM, Strain/Indicator: TA102, Metabolic Activation: NONE, Method: PREINCUBATION); “inactive; negative” (Test System: AMES SALMONELLA TYPHIMURIUM, Strain/Indicator: TA102, Metabolic Activation: RAT, LIVER, S-9, AROCLOR 1254, Method: PREINCUBATION); “inactive; negative” (Test System: AMES SALMONELLA TYPHIMURIUM, Strain/Indicator: TA104, Metabolic Activation: NONE, Method: STANDARD PLATE); “inactive; negative” (Test System: AMES SALMONELLA TYPHIMURIUM, Strain/Indicator: TA104, Metabolic Activation: RAT, LIVER, S-9, PHENOBARBITAL, Method: STANDARD PLATE).
Regarding `C1=Cc2cc3ccccc3c3cccc1c23`, the mutagenic call by setting is: under setting [4], “inactive; negative”; under setting [5], “active; positive”; under setting [1], “inactive; negative”; under setting [3], “active; positive”.
For `C[C@H]1[C@H](C)CC[C@]2(C(=O)O[C@@H]3O[C@H](CO[C@@H]4O[C@H](CO)[C@@H](O[C@@H]5O[C@@H](C)[C@H](O)[C@@H](O)[C@H]5O)[C@H](O)[C@H]4O)[C@@H](O)[C@H](O)[C@H]3O)CC[C@]3(C)C(=CC[C@@H]4[C@@]5(C)C[C@@H](O)[C@H](O)[C@@](C)(CO)[C@@H]5CC[C@]43C)[C@H]12`, the mutagenic call (End Point: IN VITRO CHROMOSOMAL ABERRATIONS, Test System: CHL CELLS, Metabolic Activation: NONE) is “inactive; negative”; the mutagenic call (End Point: IN VITRO CHROMOSOMAL ABERRATIONS, Test System: CHL CELLS, Metabolic Activation: RAT, LIVER, S-9, AROCLOR 1254) was “inactive; negative”; the mutagenic call (End Point: IN VIVO MICRONUCLEUS, Test System: BONE MARROW, Species: MOUSE, Strain/Sex: ICR, Route: GAVAGE) is “inactive; negative”; the mutagenic call under setting [4] is “inactive; negative”; the mutagenic call under setting [5] is “inactive; negative”; the mutagenic call under setting [1] is “inactive; negative”. Besides, the mutagenic call is “inactive; negative” under setting [3]; “inactive; negative” under setting [2]; “inactive; negative” (Test System: AMES SALMONELLA TYPHIMURIUM, Strain/Indicator: TA1535, Metabolic Activation: RAT, LIVER, S-9, AROCLOR 1254, Method: STANDARD PLATE); “inactive; negative” (Test System: AMES SALMONELLA TYPHIMURIUM, Strain/Indicator: TA1537, Metabolic Activation: NONE, Method: STANDARD PLATE); “inactive; negative” (Test System: AMES SALMONELLA TYPHIMURIUM, Strain/Indicator: TA1537, Metabolic Activation: RAT, LIVER, S-9, AROCLOR 1254, Method: STANDARD PLATE); “inactive; negative” (Test System: E. COLI, Strain/Indicator: WP2UVRA, Metabolic Activation: RAT, LIVER, S-9, AROCLOR 1254, Method: STANDARD PLATE). The mutagenic call (Test System: E.COLI, Strain/Indicator: WP2UVRA, Metabolic Activation: NONE, Method: STANDARD PLATE) was “inactive; negative”.
`O=C(Cl)C(Cl)(Cl)Cl`: the mutagenic call reads like this: (Test System: AMES SALMONELLA TYPHIMURIUM, Strain/Indicator: TA100, Metabolic Activation: NONE, Method: BAG VAPORIZATION) “active; positive”; (Test System: AMES SALMONELLA TYPHIMURIUM, Strain/Indicator: TA100, Metabolic Activation: RAT, LIVER, S-9, AROCLOR 1254, Method: BAG VAPORIZATION) “active; positive”.
